Where two headings read alike, the source gives them in different places. Numbered stars: 1 amine (or outer) side, 2 acyl side, 3 side chain; on linkers, the order of the positions; unused ones are H or OH. Bridge positions count the residues as written; N and C are the ends. Square brackets hold non-standard residues; d marks the D form. Peptide text beside a SMILES is read from it. Phe(4-guanidino) = N=C(N)Nc1ccc(C[C@H](N)C(=O)O)cc1; TBMB = c1c(C[*:1])cc(C[*:3])cc1C[*:2]; NMeR = CN[C@@H](CCCNC(=N)N)C(=O)O; hArg = N=C(N)NCCCC[C@H](N)C(=O)O
What was measured:
[1] = molecular target: T1, human plasma Kallikrein (Homo sapiens, UniProt P03952); experiment: Phage binding assay of individual clones, homogeneous plate-based binding to biotinylated human plasma Kallikrein; conditions: for BINDING ASSAY SIGNAL: Table 19, fixed WPAR motif library, selection output clones
T1 construct: purchased Stratech, UK
Description: Library transformant colonies were picked at random and grown as individual cultures in 2TY broth containing selective antibiotic. The picked colonies were DNA-sequenced using a QIAgen PyroMark Q96 DNA sequencer to reveal the amino-acid substitution present in each clone. Where isolated, a clone of each unique substitution was assayed for human plasma Kallikrein binding as follows. The phage-containing supernatant was harvested from the culture and phage were cyclised with tris bromomethyl benzene(TBMB) based on the methods of Heinis et al (Nature Chemical Biology vol. 5 pp 502-507 (2009)). The purified phage from this process were assayed for binding to biotinylated human plasma Kallikrein using a homogeneous plate-based binding assay; assay read-out measured on a BMG Labtech Pherastar FS plate reader. The quantitative binding data from triplicate assay samples was averaged (mean) and expressed as signal:background (where background was a sample assayed with no target material). The signal:background was expressed as a % of the parallel parent sample. Error bars denote standard deviation of the mean. Assays shown are representative of at least 2 independent experiments. The assay data was correlated with the peptide sequences. Substitutions marked in grey were not tested (a clone was not isolated from the random library sampling). A sample of a non-binding (arbitrary) bicycle was assayed in parallel to illustrate the assay baseline.
Library transformant colonies, or selection output colonies, were picked and grown as individual cultures in 2TY broth containing selective antibiotic. The picked colonies were DNA-sequenced using a QIAgen PyroMark Q96 DNA sequencer to reveal the amino-acid substitution present in each clone, and were assayed for human plasma Kallikrein binding as follows. The phage-containing supernatant was harvested from the culture and phage were cyclised with tris bromomethyl benzene (TBMB) based on the methods of Heinis et al (Nature Chemical Biology vol. 5 pp 502-507 (2009)). The purified phage from this process were assayed for binding to biotinylated human plasma Kallikrein using a homogeneous plate-based binding assay; assay read-out measured on a BMG Labtech Pherastar FS plate reader. The quantitative binding data from duplicate assay samples was averaged (mean) and expressed as signal:background. Assay data shown is representative of at least 2 independent experiments. The assay data was correlated with the peptide sequences.

[2] = molecular target: T1, human plasma Kallikrein; experiment: Phage selections against human plasma Kallikrein (abundance in selection output); format: binding; conditions: Table 17; relative abundance in the total selection outputs
Description: Glycerol stocks of phage libraries were diluted to OD600=0.1 in 500 ml 2YT/chloramphenicol (30 μg/ml) cultures and phage were produced at 30° C. over night (15-16 hrs). Phage were purified and chemically modified as described in Heinis, et al., Nat Chem Biol 2009, 5 (7), 502-7 Biotinylated hPK (3 μg) (IHPKA, from human plasma, Innovative Research, Novi, Mich., USA) was incubated with 50 μl pre-washed magnetic streptavidin beads (Dynal, M-280 from Invitrogen, Paisley, UK) for 10 minutes at RT. Beads were washed 3 times prior to blocking with 0.5 ml washing buffer (10 mM Tris-Cl, pH 7.4, 150 mM NaCl, 10 mM MgCl2, 1 mM CaCl2) containing 1% BSA and 0.1% Tween 20 for 30 minutes at RT with rotation. […] Blocked beads were then mixed with the blocked chemically modified phage and incubated for 30 minutes on a rotating wheel at
RT. Beads were washed 8 times with washing buffer containing 0.1% Tween 20 and twice with washing buffer before incubation with 100 μl of 50 mM glycine, pH 2.2 for 5 minutes. Eluted phage were transferred to 50 μl of 1 M Tris-Cl, pH 8 for neutralization, incubated with 30 ml TG1 cells at OD600=0.4 for 90 minutes at 37° C. and the cells were plated on large 2YT/chloramphenicol plates. One or two additional rounds of panning were performed using the same procedures. In the second round of selection, neutravidin-coated magnetic beads were used to prevent the enrichment of streptavidin-specific peptides. The neutravidin beads were prepared by reacting 0.8 mg neutravidin (Pierce, Rockford, Ill., USA) with 0.5 ml tosyl-activated magnetic beads (Dynal, M-280 from Invitrogen, Paisley, UK) according to the supplier's instructions.
The WPAR (SEQ ID No. 19) motif identified from Example 1 was analysed in the context of the 06-34-03 peptide, in order to identify alternatives or improvements to the WPAR motif. A library was constructed where positions 1, 6, 7, 8, 9 &10 of 06-34-03 were fixed and positions 2, 3, 4 & 5 were randomised (see ‘Randomisation of peptide domains—Library construction’ in Methods above). Selections against human plasma Kallikrein were performed at a variety of stringencies (see Phage selections' in Methods above). All output sequences were identified and analysed for target binding (see ‘Randomisation of peptide domains—Assay of binding of individual clones’ in Methods above). Table 17 lists each unique sequence, its relative abundance in the selection output (frequency), and a rank number according to target binding strength.

[3] = Plasma stability profiling Method #1 (MALDI-TOF, 35% plasma), rat plasma; format: in vitro ADME
In short: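 Qualitative test: 200 µM peptide incubated at 37 °C in 35% rat or human citrated plasma supplemented with PBS, sampled at 0, 3, 24 h then daily up to 10 days. Parent mass tracked by MALDI-TOF; value is time until parent peptide no longer detectable.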

[4] = molecular target: T2, rat plasma Kallikrein (Rattus norvegicus, UniProt P14272)
T2 construct: polyhistidine tag (N, cleaved yes); proTEV cleavage site (pro-peptide linker) (N, cleaved yes); made in house; host or cells: HEK-293 (suspension-adapted)

[5] = Table 1; Method #3; cited from earlier work
[6] = Quantitative plasma stability Method #3 (LC-MS, 95% plasma), rat plasma; format: in vitro ADME
Description: (§1) To obtain plasma stability quantitatively, peptide stock solutions (1 mM in DMSO) were shipped to Biofocus, UK, who performed the analysis. Peptides were diluted to 100 uM with water, and diluted 1:20 in plasma (5 uM final concentration, with the plasma at 95%), sampled as appropriate, precipitated as above, and quantified using a Waters Xevo TQ-MS.

[7] = Table 1; Method #1; cited from earlier work
[8] = Quantitative plasma stability Method #3 (LC-MS, 95% plasma), human plasma; format: in vitro ADME; conditions: Table 2, ex vivo human plasma, read-out: Human Plasma Stability (t½ in hrs) (converted)
Description: as §1

[9] = molecular target: T1, human plasma Kallikrein; experiment: Functional enzyme inhibition assay with fluorogenic substrate Z-PheArg-AMC, human plasma Kallikrein; format: biochemical; conditions: for F (Kivar/KiWT): ratio of Ki to wild type
In short: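 Human plasma kallikrein at 26.5 pM was preincubated 15 minutes with test peptide in Tris/NaCl/MgCl2/CaCl2/BSA buffer pH7.4 at 25° C, then Z-PheArg-AMC added to 100 μM final in 4% DMSO.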

[10] = Plasma stability / fragment profiling Method #2 (MALDI-TOF, 95% plasma), human plasma; format: in vitro ADME
In short: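 Peptide at 50 uM final in 95% human plasma without PBS; timed samples frozen at −80 °C, then extracted with 1:1 acetonitrile:methanol. Supernatant mixed with 30 mM ammonium bicarbonate and analysed by MALDI-TOF; qualitative fragment profiling of relative stability over time.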

[11] = Table 23, comparative stabilities estimated according to method #1
[12] = Table 1; read-out: Ki (nM) (rat kallikrein); cited from earlier work
[13] = rat plasma (95%), Table 2, ex vivo rat plasma, Method #3, read-out: Rat Plasma Stability (t½ in hrs) (converted)

T1 sequence (P03952 20-638): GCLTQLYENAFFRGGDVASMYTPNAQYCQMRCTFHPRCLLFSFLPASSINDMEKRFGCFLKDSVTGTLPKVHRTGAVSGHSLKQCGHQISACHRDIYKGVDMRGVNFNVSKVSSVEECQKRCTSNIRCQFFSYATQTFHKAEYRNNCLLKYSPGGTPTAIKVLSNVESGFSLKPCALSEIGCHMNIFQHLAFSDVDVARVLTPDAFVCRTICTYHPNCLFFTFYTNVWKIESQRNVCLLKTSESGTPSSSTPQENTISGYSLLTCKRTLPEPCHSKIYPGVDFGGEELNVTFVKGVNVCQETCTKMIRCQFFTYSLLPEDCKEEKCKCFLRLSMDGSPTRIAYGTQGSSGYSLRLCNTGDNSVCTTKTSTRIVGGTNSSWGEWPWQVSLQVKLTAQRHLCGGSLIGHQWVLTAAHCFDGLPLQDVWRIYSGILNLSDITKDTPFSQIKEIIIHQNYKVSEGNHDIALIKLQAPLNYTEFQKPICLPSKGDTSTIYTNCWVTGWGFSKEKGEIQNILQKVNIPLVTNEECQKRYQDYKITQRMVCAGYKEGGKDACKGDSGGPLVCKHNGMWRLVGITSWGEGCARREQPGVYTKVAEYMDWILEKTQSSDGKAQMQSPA
T2 sequence (P14272 391-638 limits assumed): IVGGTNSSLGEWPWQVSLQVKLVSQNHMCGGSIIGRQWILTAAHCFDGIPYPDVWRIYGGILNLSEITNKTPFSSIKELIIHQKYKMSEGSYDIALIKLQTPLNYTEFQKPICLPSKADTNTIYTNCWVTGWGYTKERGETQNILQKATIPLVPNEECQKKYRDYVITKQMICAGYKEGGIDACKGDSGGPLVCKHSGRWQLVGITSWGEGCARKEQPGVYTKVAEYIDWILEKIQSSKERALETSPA

CSWPYHCTHQDLC
RANK ([1]; Table 17, rank according to Kallikrein binding, positions 2-5 of 06-34-03 randomised): 39 | FREQUENCY [2]: 1

CQWPARCTHTDLC
BINDING ASSAY SIGNAL [1]: 91

CLWPARCLTIELC
BINDING ASSAY SIGNAL [1]: 59

CC(=O)N[C@H]1CSCc2cc3cc(c2)CSC[C@H](NC(=O)[C@H](Cc2ccc(NC(=N)N)cc2)NC(=O)[C@H](Cc2ccc(O)cc2)NC(=O)[C@@H]2CCCN2C(=O)[C@H](Cc2ccccc2)NC(=O)[C@H](CO)NC1=O)C(=O)N[C@@H](CC(C)C)C(=O)N[C@@H](Cc1c[nH]cn1)C(=O)N[C@@H](CCC(N)=O)C(=O)N[C@@H](CC(=O)O)C(=O)N[C@@H](CC(C)C)C(=O)N[C@H](C(N)=O)CSC3 [Ac-(06-34-18) Phe2 Tyr4 4GuanPhe5] (Ac-CSFPY[Phe(4-guanidino)]CLHQDLC-NH2; linker 1-7-13 via TBMB)
Observable in rat plasma, for days [3, 11]: >10 days | Ki [4, 12]: 0.6 nM | t1/2 (hrs) in rat plasma [5]: 5.0 h | half-life at 5 uM [6, 13]: 5 h | Observable in rat plasma, for days [7]: >10 days | half-life at 5 uM ([8]; human plasma (95%)): 174 min

CSWPARCTHTDLC
BINDING ASSAY SIGNAL [1]: 83

CC(=O)N[C@H]1CSCc2cc3cc(c2)CSC[C@H](NC(=O)[C@H](CCCCNC(=N)N)NC(=O)[C@H](Cc2ccc(O)cc2)NC(=O)[C@@H]2CCCN2C(=O)[C@H](Cc2ccccc2)NC(=O)[C@H](CO)NC1=O)C(=O)N[C@@H](CC(C)C)C(=O)N[C@@H](Cc1c[nH]cn1)C(=O)N[C@@H](CCC(N)=O)C(=O)N[C@@H](CC(=O)O)C(=O)N[C@@H](CC(C)C)C(=O)N[C@H](C(N)=O)CSC3 [Ac-(06-34-18) Phe2 Tyr4 HomoArg5] (Ac-CSFPY[hArg]CLHQDLC-NH2; linker 1-7-13 via TBMB)
Observable in rat plasma, for days [3, 11]: >10 days | Ki [4, 12]: 16.2 nM | t1/2 (hrs) in rat plasma [5]: 12.2 h | t1/2 (hrs) in rat plasma ([6]; Table 23, method #3): 12.2 h | rat plasma stability enhanced by a factor ([6]; compared to parent Phe2 Tyr4 peptide): 13 | half-life at 5 uM [6, 13]: 12.2 h | Observable in rat plasma, for days [7]: >10 days | half-life at 5 uM ([8]; human plasma (95%)): 126 min

CC(=O)N[C@H]1CSCc2cc3cc(c2)CSC[C@H](NC(=O)[C@H](CCCNC(=N)N)N(C)C(=O)[C@H](Cc2ccc(O)cc2)NC(=O)[C@@H]2CCCN2C(=O)[C@H](Cc2ccccc2)NC(=O)[C@H](CO)NC1=O)C(=O)N[C@@H](CC(C)C)C(=O)N[C@@H](Cc1c[nH]cn1)C(=O)N[C@@H](CCC(N)=O)C(=O)N[C@@H](CC(=O)O)C(=O)N[C@@H](CC(C)C)C(=O)N[C@H](C(N)=O)CSC3 [Ac-(06-34-18) Phe2 Tyr4 NMeArg5] (Ac-CSFPY[NMeR]CLHQDLC-NH2; linker 1-7-13 via TBMB)
Observable in rat plasma, for days [3, 11]: >10 days | Ki ([9]; Table 2, read-out: Ki (nM) human Kai): 4 nM | Ki [4, 12]: 64.3 nM | t1/2 (hrs) in rat plasma [5]: >20 h | half-life at 5 uM [6, 13]: > 20 h | half-life at 5 uM ([6]; rat, plasma, Table 23, method #3, read-out: t1/2 (hrs) in rat plasma (converted)): > 20 h | Observable in rat plasma, for days [7]: >10 days | half-life at 5 uM ([8]; human plasma (95%)): 102 min

CC(=O)N[C@H]1CSCc2cc3cc(c2)CSC[C@H](NC(=O)[C@H](CCCNC(=N)N)NC(=O)[C@H](Cc2ccc(O)cc2)NC(=O)[C@@H]2CCCN2C(=O)[C@H](Cc2ccccc2)NC(=O)[C@H](CO)NC1=O)C(=O)N[C@@H](CC(C)C)C(=O)N[C@@H](Cc1c[nH]cn1)C(=O)N[C@@H](CCC(N)=O)C(=O)N[C@@H](CC(=O)O)C(=O)N[C@@H](CC(C)C)C(=O)N[C@H](C(N)=O)CSC3 [Ac-(06-34-18) Phe2 Tyr4] (Ac-CSFPYRCLHQDLC-NH2; linker 1-7-13 via TBMB)
Observable in rat plasma, for days ([3]; Table 21, method #1): 2 days | Observable in rat plasma, for days [3, 11]: 2 days | Ki ([9]; Ki (nM) (human kallikrein), Table 26a, loop2 stability enhanced candidates): 0.9 nM | Ki ([9]; Ki (nM) human Kai, Table 2): 0.42 nM | F (Kivar/KiWT) ([9]; Table 3a): 1 | F (Kivar/KiWT) ([9]; Table 24b): 1 | Ki ([4]; read-out: Ki (nM) (rat kallikrein); Table 1; cited from earlier work): 7.6 nM | t1/2 (hrs) in rat plasma [5]: 0.9 h | Rat Plasma Stability (t½ in hrs) ([6]; Table 2, ex vivo rat plasma, Method #3): 54 min | t1/2 (hrs) in rat plasma ([6]; Table 23, method #3): 0.9 h | half-life at 5 uM ([6]; rat, plasma, method #3, read-out: half-life in rat plasma (t1/2) (converted)): 0.9 h | Observable in rat plasma, for days [7]: 2 days | Fragments (human plasma) ([10]; Table 3a, peptide fragments observed after incubation in human plasma): -LHQ | degradation / fragments in human plasma (in words) ([10]; running text and figure legends): fragments with His7-Gln8, Leu6, and Leu6-His7-Gln8 removed | half-life at 5 uM [8]: 84 min

CAWPARCTHDDLC
BINDING ASSAY SIGNAL [1]: 84
